Measured values taken from PMC9732253, “Inhibition of the Phosphatidylinositol-3 Kinase Pathway Using Bimiralisib in Loss-of-Function NOTCH1-Mutant Head and Neck Cancer” (The Oncologist, 2022).
Read-outs that look alike come from different tables or passages of the source.

How the values were obtained:
PI3Kα = details: cited from earlier work
NOTCH1-mutant HNSCC = details: one heavily pretreated patient with NOTCH1-mutant HNSCC, thoracic metastases; cited from earlier work
[1] = Phase II trial, PK analysis: pre-dose and 1 h post-dose blood levels by HPLC; assay type: in vivo, human; details: for Cmax: human, serum, 140 mg; for Trough: pre-dose
Description: Blood was collected before oral dose administration and 1 hour after oral dose administration on days 1, 8, 22, 43, and 64 after the start of therapy. Bimiralisib levels were determined as previously described using high-performance liquid chromatography[8-11] by Charles River Laboratories (Ashland, Ohio). The pre-dose levels were the trough levels and post-dose levels were the assumed peak serum concentration (Cmax) values. Cmax and trough accumulation ratios were calculated by dividing each patient’s treatment day concentration by their initial available drug concentration—day 1 for Cmax and day 8 for trough. Statistical differences among groups were identified by analysis of variance using Statistica version 13.1 (TIBCO Software Inc., Palo Alto, California); P < .05 was considered statistically significant

other protein kinases = tested on: other protein kinases; parameters: method as in PMID 28829592; details: biochemical assays; cited from earlier work
[2] = tested on: pathway targets in tumor tissue; parameters: method as in PMID 29660598; details: therapeutic doses; cited from earlier work
[3] = cited from earlier work
PI3Kβ = details: compared with PI3Kα and mTOR; cited from earlier work
mTOR = details: cited from earlier work

Nc1cc(C(F)(F)F)c(-c2nc(N3CCOCC3)nc(N3CCOCC3)n2)cn1 [Bimiralisib, 5-(4,6-dimorpholino-1,3,5-triazin-2-yl)-4-(trifluoromethyl)pyridin-2-amine]
Inhibition of PI3Kα (PI3Kα): potently inhibits
Duration of partial response (NOTCH1-mutant HNSCC): 9 months
Cmax ([1]; oral, 140-mg dose, current study, read-out: Maximum Cmax value): 970 ng/mL
Cmax ([1]; po, median, Day 1 (n = 6), 1 hour after 140 mg oral dose, read-out: C max): 574 ng/mL
Cmax ([1]; po, median, Day 8 (n = 6), 1 hour after oral dose, read-out: C max): 574 ng/mL
Cmax ([1]; po, median, Day 22 (n = 5), 1 hour after oral dose, read-out: C max): 691 ng/mL
Cmax ([1]; po, median, Day 43 (n = 4), 1 hour after oral dose, read-out: C max): 526 ng/mL
Cmax ([1]; po, median, Day 64 (n = 5), 1 hour after oral dose, read-out: C max): 546 ng/mL
Cmax accumulation ([1]; intermittent dosing regimen): not observed
Trough ([1]; median, Day 8 (n = 6)): 62 ng/mL
C max accumulation ratio ([1]; median, Day 8 vs day 1): 0.78
Trough ([1]; median, Day 22 (n = 5)): 101 ng/mL
C max accumulation ratio ([1]; median, Day 22 vs day 1): 1.18
Trough accumulation ratio ([1]; median, Day 22 vs day 8): 1.11
Trough ([1]; median, Day 43 (n = 4)): 11.6 ng/mL
C max accumulation ratio ([1]; median, Day 43 vs day 1): 0.82
Trough accumulation ratio ([1]; median, Day 43 vs day 8): 0.94
Trough ([1]; median, Day 64 (n = 5)): 139 ng/mL
C max accumulation ratio ([1]; median, Day 64 vs day 1): 0.94
Trough accumulation ratio ([1]; median, Day 64 vs day 8): 0.63
Inhibition of other protein kinases (other protein kinases): does not significantly inhibit
Change of pathway targets in tumor tissue [2]: marked decreases
Time of maximum plasma concentration, latest ([3]; after oral administration): ≤ 24 h
Highest Cmax ([3]; dose of 150 mg, ref 11 (Wicki et al)): 998 ng/mL
Terminal half-life ([3]; in vivo): 40 h
Time of maximum plasma concentration after a dose ([3]; most humans, oral): 1 to 2 h
Potency against PI3Kβ (PI3Kβ): less potency
Inhibition of mTOR (mTOR): potently inhibits
